Assays:
panel of 442 kinases [1] = biological target: T1, panel of 442 kinases (Homo sapiens, UniProt O14936); type: binding; parameters: KINOMEscan: ABL1(F317L)-phosphorylated / KINOMEscan: ABL1(H396P)-nonphosphorylated / KINOMEscan: ABL1(H396P)-phosphorylated / KINOMEscan: ABL1(M351T)-phosphorylated / KINOMEscan: ABL1(T315I)-phosphorylated / KINOMEscan: ABL1-nonphosphorylated / KINOMEscan: ABL1-phosphorylated / KINOMEscan: ACVR2A / KINOMEscan: ACVR2B / KINOMEscan: ADCK3 / KINOMEscan: ADCK4 / KINOMEscan: AKT1 / KINOMEscan: AKT3 / KINOMEscan: ALK / KINOMEscan: ARK5 / KINOMEscan: AURKA / KINOMEscan: AURKC / KINOMEscan: BIKE / KINOMEscan: BMPR1A / KINOMEscan: BMPR1B / KINOMEscan: BMX / KINOMEscan: BRK / KINOMEscan: BRSK1 / KINOMEscan: BRSK2 / KINOMEscan: CAMK1 / KINOMEscan: CAMK1D / KINOMEscan: CAMK1G / KINOMEscan: CAMK2A / KINOMEscan: CAMK2B / KINOMEscan: AAK1 / KINOMEscan: CAMK2D / KINOMEscan: CAMK2G / KINOMEscan: ABL1(F317I)-nonphosphorylated / KINOMEscan: ABL1(F317I)-phosphorylated / KINOMEscan: ABL1(F317L)-nonphosphorylated: unit: % Ctrl; details: Compound Concentration 10 µM
T1 construct: purchased KINOMEscan
T1 sequence (O14936 1-926): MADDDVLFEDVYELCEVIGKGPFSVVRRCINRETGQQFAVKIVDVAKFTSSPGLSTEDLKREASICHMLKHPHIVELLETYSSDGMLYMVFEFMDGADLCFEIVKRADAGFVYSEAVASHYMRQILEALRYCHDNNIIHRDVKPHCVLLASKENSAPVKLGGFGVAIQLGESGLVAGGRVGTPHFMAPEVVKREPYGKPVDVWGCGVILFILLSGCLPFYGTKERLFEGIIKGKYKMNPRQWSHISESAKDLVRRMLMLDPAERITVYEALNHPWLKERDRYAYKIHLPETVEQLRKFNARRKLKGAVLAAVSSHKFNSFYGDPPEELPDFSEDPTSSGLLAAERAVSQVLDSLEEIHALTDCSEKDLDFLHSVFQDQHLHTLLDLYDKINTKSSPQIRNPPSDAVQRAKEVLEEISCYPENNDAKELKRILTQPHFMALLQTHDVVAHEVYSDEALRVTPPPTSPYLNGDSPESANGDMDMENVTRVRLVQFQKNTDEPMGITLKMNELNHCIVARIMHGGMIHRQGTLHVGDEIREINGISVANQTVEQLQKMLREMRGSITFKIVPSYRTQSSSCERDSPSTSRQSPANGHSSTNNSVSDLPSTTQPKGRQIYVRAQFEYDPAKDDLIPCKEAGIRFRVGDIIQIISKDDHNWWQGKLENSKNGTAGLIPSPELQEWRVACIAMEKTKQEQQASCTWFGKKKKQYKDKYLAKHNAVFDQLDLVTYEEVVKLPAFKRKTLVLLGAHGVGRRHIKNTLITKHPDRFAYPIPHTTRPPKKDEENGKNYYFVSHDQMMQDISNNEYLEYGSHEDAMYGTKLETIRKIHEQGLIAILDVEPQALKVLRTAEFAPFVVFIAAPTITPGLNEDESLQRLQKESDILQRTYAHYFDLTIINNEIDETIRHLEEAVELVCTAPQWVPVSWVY
Source text: (§1) We assessed the selectivity of members of this scaffold using the KINOMEscan methodology across a near comprehensive panel of 442 kinases [[18,27]].

panel of 442 kinases [2] = biological target: T2, panel of 442 kinases (Homo sapiens, UniProt O60285); type: binding; parameters: KINOMEscan: ABL1(F317L)-phosphorylated / KINOMEscan: ABL1(H396P)-nonphosphorylated / KINOMEscan: ABL1(H396P)-phosphorylated / KINOMEscan: ABL1(M351T)-phosphorylated / KINOMEscan: ABL1(T315I)-phosphorylated / KINOMEscan: ABL1-nonphosphorylated / KINOMEscan: ABL1-phosphorylated / KINOMEscan: ACVR2A / KINOMEscan: ACVR2B / KINOMEscan: ADCK3 / KINOMEscan: ADCK4 / KINOMEscan: AKT1 / KINOMEscan: AKT3 / KINOMEscan: ALK / KINOMEscan: ARK5 / KINOMEscan: AURKA / KINOMEscan: AURKC / KINOMEscan: BIKE / KINOMEscan: BMPR1A / KINOMEscan: BMPR1B / KINOMEscan: BMX / KINOMEscan: BRK / KINOMEscan: BRSK1 / KINOMEscan: BRSK2 / KINOMEscan: CAMK1 / KINOMEscan: CAMK1D / KINOMEscan: CAMK1G / KINOMEscan: CAMK2A / KINOMEscan: CAMK2B / KINOMEscan: AAK1 / KINOMEscan: CAMK2D / KINOMEscan: CAMK2G / KINOMEscan: ABL1(F317I)-nonphosphorylated / KINOMEscan: ABL1(F317I)-phosphorylated / KINOMEscan: ABL1(F317L)-nonphosphorylated: unit: % Ctrl; details: Compound Concentration 10 µM
T2 construct: purchased KINOMEscan
T2 sequence (O60285 1-661): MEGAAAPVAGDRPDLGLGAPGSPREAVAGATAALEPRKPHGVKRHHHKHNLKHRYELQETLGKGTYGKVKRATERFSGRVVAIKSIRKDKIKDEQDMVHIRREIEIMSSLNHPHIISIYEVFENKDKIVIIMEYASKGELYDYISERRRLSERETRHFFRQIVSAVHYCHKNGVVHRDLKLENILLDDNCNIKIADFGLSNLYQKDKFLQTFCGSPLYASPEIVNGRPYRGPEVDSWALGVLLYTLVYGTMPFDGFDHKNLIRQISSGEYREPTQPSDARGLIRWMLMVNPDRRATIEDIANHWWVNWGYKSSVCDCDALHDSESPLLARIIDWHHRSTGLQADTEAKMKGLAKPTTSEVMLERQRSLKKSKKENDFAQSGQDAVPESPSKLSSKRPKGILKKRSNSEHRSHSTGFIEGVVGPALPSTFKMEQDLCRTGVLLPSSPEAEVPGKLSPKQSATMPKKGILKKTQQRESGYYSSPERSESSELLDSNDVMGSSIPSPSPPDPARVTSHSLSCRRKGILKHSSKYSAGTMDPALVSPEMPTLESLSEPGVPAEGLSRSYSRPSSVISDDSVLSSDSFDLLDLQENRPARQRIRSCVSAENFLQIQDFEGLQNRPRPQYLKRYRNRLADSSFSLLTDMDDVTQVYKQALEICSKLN
Source text: as §1

**Q.** For COc1cc(C(=O)N2CCC(N3CCN(C)CC3)CC2)ccc1Nc1ncc2c(n1)N(C1CCCC1)c1ccccc1C(=O)N2C [Compound 25, 11-cyclopentyl-2-((2-methoxy-4-(4-(4-methylpiperazin-1-yl)piperidine-1-carbonyl)phenyl)amino)-5-methyl-5H-benzo[e]pyrimido[5,4-b][1,4]diazepin-6(11H)-one], which “KINOMEscan: CASK” value (panel of 442 kinases [1]) is on record?
**A.** The value was 100.

**Q.** And the “KINOMEscan: ARK5” value (panel of 442 kinases [2])?
**A.** Its value is 90.

**Q.** For CCOc1cc(C(=O)N2CCC(N3CCN(C)CC3)CC2)ccc1Nc1ncc2c(n1)N(C1CCCC1)c1ccccc1C(=O)N2C [Compound 26], which “KINOMEscan: CASK” value (panel of 442 kinases [1]) is on record?
**A.** Its value is 98.

**Q.** And the “KINOMEscan: ARK5” value (panel of 442 kinases [2])?
**A.** The value was 100.

**Q.** Which “KINOMEscan: CASK” value (panel of 442 kinases [1]) does the source give for COc1cc(C(=O)N2CCC(N3CCN(C)CC3)CC2)ccc1Nc1ncc2c(n1)N1CCc3cccc(c31)C(=O)N2C [Compound 24] here?
**A.** Its value is 100.

**Q.** And the “KINOMEscan: ARK5” value (panel of 442 kinases [2])?
**A.** The value was 68.

**Q.** What does the source list for COc1cc(C(=O)N2CCC(N3CCN(C)CC3)CC2)ccc1Nc1ncc2c(n1)N(C)c1ccccc1C(=O)N2C [15 (LRRK2-IN-1)]?
**A.** KINOMEscan: CASK (panel of 442 kinases [1]): 85; KINOMEscan: ARK5 (panel of 442 kinases [2]): 47
